{"source": "BigSolDB 2.1", "data": [{"compound": "O=[N+]([O-])c1cn[nH]c1[N+](=O)[O-]", "values": [{"measurement": "solubility (mole fraction)", "setting": "in anisole, 298.15 K", "result": 0.043}, {"measurement": "solubility (mole fraction)", "setting": "in anisole, 303.15 K", "result": 0.058}, {"measurement": "solubility (mole fraction)", "setting": "in anisole, 308.15 K", "result": 0.0778}, {"measurement": "solubility (mole fraction)", "setting": "in anisole, 313.15 K", "result": 0.103}, {"measurement": "solubility (mole fraction)", "setting": "in anisole, 318.15 K", "result": 0.138}, {"measurement": "solubility (mole fraction)", "setting": "in anisole, 323.15 K", "result": 0.181}, {"measurement": "solubility (mole fraction)", "setting": "in anisole, 328.15 K", "result": 0.237}, {"measurement": "solubility (mole fraction)", "setting": "in anisole, 333.15 K", "result": 0.313}, {"measurement": "solubility (mole fraction)", "setting": "in anisole, 338.15 K", "result": 0.411}, {"measurement": "solubility (mole fraction)", "setting": "in benzene, 298.15 K", "result": 0.00171}, {"measurement": "solubility (mole fraction)", "setting": "in benzene, 303.15 K", "result": 0.00211}, {"measurement": "solubility (mole fraction)", "setting": "in benzene, 308.15 K", "result": 0.00264}, {"measurement": "solubility (mole fraction)", "setting": "in benzene, 313.15 K", "result": 0.00317}, {"measurement": "solubility (mole fraction)", "setting": "in benzene, 318.15 K", "result": 0.00389}, {"measurement": "solubility (mole fraction)", "setting": "in benzene, 323.15 K", "result": 0.00482}, {"measurement": "solubility (mole fraction)", "setting": "in benzene, 328.15 K", "result": 0.00585}, {"measurement": "solubility (mole fraction)", "setting": "in benzene, 333.15 K", "result": 0.00742}, {"measurement": "solubility (mole fraction)", "setting": "in benzene, 338.15 K", "result": 0.00936}, {"measurement": "solubility (mole fraction)", "setting": "in chlorobenzene, 298.15 K", "result": 0.0012}, {"measurement": "solubility (mole fraction)", "setting": "in chlorobenzene, 303.15 K", "result": 0.00147}, {"measurement": "solubility (mole fraction)", "setting": "in chlorobenzene, 308.15 K", "result": 0.0018}, {"measurement": "solubility (mole fraction)", "setting": "in chlorobenzene, 313.15 K", "result": 0.00218}, {"measurement": "solubility (mole fraction)", "setting": "in chlorobenzene, 318.15 K", "result": 0.00266}, {"measurement": "solubility (mole fraction)", "setting": "in chlorobenzene, 323.15 K", "result": 0.00328}, {"measurement": "solubility (mole fraction)", "setting": "in chlorobenzene, 328.15 K", "result": 0.00402}, {"measurement": "solubility (mole fraction)", "setting": "in chlorobenzene, 333.15 K", "result": 0.00494}, {"measurement": "solubility (mole fraction)", "setting": "in chlorobenzene, 338.15 K", "result": 0.00609}, {"measurement": "solubility (mole fraction)", "setting": "in isopropanol, 298.15 K", "result": 0.388}, {"measurement": "solubility (mole fraction)", "setting": "in isopropanol, 303.15 K", "result": 0.413}, {"measurement": "solubility (mole fraction)", "setting": "in isopropanol, 308.15 K", "result": 0.441}, {"measurement": "solubility (mole fraction)", "setting": "in isopropanol, 313.15 K", "result": 0.472}, {"measurement": "solubility (mole fraction)", "setting": "in isopropanol, 318.15 K", "result": 0.509}, {"measurement": "solubility (mole fraction)", "setting": "in isopropanol, 323.15 K", "result": 0.547}, {"measurement": "solubility (mole fraction)", "setting": "in isopropanol, 328.15 K", "result": 0.588}, {"measurement": "solubility (mole fraction)", "setting": "in isopropanol, 333.15 K", "result": 0.642}, {"measurement": "solubility (mole fraction)", "setting": "in isopropanol, 338.15 K", "result": 0.7}, {"measurement": "solubility (mole fraction)", "setting": "in n-butanol, 298.15 K", "result": 0.318}, {"measurement": "solubility (mole fraction)", "setting": "in n-butanol, 303.15 K", "result": 0.348}, {"measurement": "solubility (mole fraction)", "setting": "in n-butanol, 308.15 K", "result": 0.387}, {"measurement": "solubility (mole fraction)", "setting": "in n-butanol, 313.15 K", "result": 0.411}, {"measurement": "solubility (mole fraction)", "setting": "in n-butanol, 318.15 K", "result": 0.444}, {"measurement": "solubility (mole fraction)", "setting": "in n-butanol, 323.15 K", "result": 0.489}, {"measurement": "solubility (mole fraction)", "setting": "in n-butanol, 328.15 K", "result": 0.528}, {"measurement": "solubility (mole fraction)", "setting": "in n-butanol, 333.15 K", "result": 0.586}, {"measurement": "solubility (mole fraction)", "setting": "in n-butanol, 338.15 K", "result": 0.648}, {"measurement": "solubility (mole fraction)", "setting": "in toluene, 298.15 K", "result": 0.00201}, {"measurement": "solubility (mole fraction)", "setting": "in toluene, 303.15 K", "result": 0.0024}, {"measurement": "solubility (mole fraction)", "setting": "in toluene, 308.15 K", "result": 0.00291}, {"measurement": "solubility (mole fraction)", "setting": "in toluene, 313.15 K", "result": 0.00345}, {"measurement": "solubility (mole fraction)", "setting": "in toluene, 318.15 K", "result": 0.00411}, {"measurement": "solubility (mole fraction)", "setting": "in toluene, 323.15 K", "result": 0.00499}, {"measurement": "solubility (mole fraction)", "setting": "in toluene, 328.15 K", "result": 0.00601}, {"measurement": "solubility (mole fraction)", "setting": "in toluene, 333.15 K", "result": 0.00725}, {"measurement": "solubility (mole fraction)", "setting": "in toluene, 338.15 K", "result": 0.00877}]}]}
